Patent publication US10695360B2, “Adiponectin secretion enhancer” (WASHINGTON UNIVERSITY, priority 2017, dated 2020)

Experiments:
[1] = system: ANKO mice (adipose tissue-specific NAMPT knockout mice); assay: NAD+ precursor rescue experiments in ANKO mice (Example 5); assay type: in vivo, mouse
Excerpt: To determine whether metabolic derangements depend on the defects in NAD+ biosynthesis in ANKO mice, we treated mice with NMN, a key NAD+ intermediate and the product of the NAMPT reaction (FIG. 6A). In the diagram, “NA” represents nicotinic acid, “NaMN” represents nicotinic acid mononucleotide, “NIC” represents nicotinamide, “NR” represents nicotinamide riboside, “Tip” represents tryptophan, and “NAPRT” represents nicotinate phosphoribosyl transferase. NMN is a product of an enzyme reaction mediated by NAMPT and is converted directly to NAD+. Nicotinic acid is a precursor in the NAPRT-dependent NAD+ biosynthesis pathway.
ANKO mice were generated by using adiponectin-Cre transgenic mice and floxed-Nampt mice as previously described (Noon et al., 2015). Mice were maintained on a standard chow diet (LabDiet 5053; LabDiet) ad libitum. For RSG rescue experiments, ANKO mice received a chow containing RSG (#71740; Cayman Chemical) at the approximate dose of 20 mg/kg body Weight/day soon after weaning for up to 7 weeks. For NAD+ precursor rescue experiments, we administered NMN (#44500900; Oriental Yeast) and NA (#72309; Sigma-Aldrich) in drinking water, at the approximate dose of 500 mg/kg of body weight, to ANKO mice soon after weaning for up to 2 months.
More specifically, drinking water containing NMN (500 mg/kg body weight/day) was administered to the female ANKO mice and metabolic parameters were investigated after administering NMN for 4 to 6 weeks. In the graphs, “NMN-ANKO” indicates the results for NMN-treated ANKO mice, “ANKO” indicates the results for NMN-untreated ANKO mice of the same age as the NMN-treated ANKO mice, and “flox/flox” indicates the results for the control mice (female Nampt-floxed (flox/flox) mice). All values in the graphs represent the mean ±SE. In the graphs, “*” indicates p<0.05, “**” indicates p<0.01, and “***” indicates p<0.001 (NMN-treated ANKO mice vs. NMN-untreated ANKO mice, Student's t-test). In addition, in the graphs, “a” indicates p<0.05 (NMN-treated ANKO mice vs. NMN-untreated ANKO mice, ANOVA), and “b” indicates p<0.05 (control mice vs. NMN-untreated ANKO mice, ANOVA).
FIG. 6B indicates the results of measuring […] levels in adipose tissue for female ANKO mice administered NMN for 4 to 6 weeks (500 mg/kg body weight day) and non-dosed female ANKO mice of the same age (per group, n=5 to 7). NAD+ levels were measured with an HPLC (high-performance liquid chromatography) system using a Supelco LC-18-T column (#58970-U, Sigma-Aldrich Corp.) (Yoon, et al., Cell Metabolism, 2015, Vol. 21, p. 706-717). FIG. 6C indicates the results of having carried out an insulin tolerance test (ITT), consisting of administering insulin and measuring blood glucose concentration over time, on NMN-treated mice following administration of NMN for 4 weeks (n=7) and non-dosed ANKO mice for which age has been aligned at 2 to 3 weeks (n=14), and control mice (n=8). The left graph in FIG. 6C indicates the results for changes in glucose concentration over time (insulin tolerance curve), while the graph on the right side of FIG. 6C indicates the results for the area under the curve (AUC) of glucose concentration.
The results for measuring plasma insulin concentrations for NMN-treated ANKO mice, NMN-untreated ANKO mice and control mice are shown in FIG. 6D, while the results of measuring plasma free fatty acid (FFA) concentrations are shown in FIG. 6E (per group, n=5 to 11). In addition, visceral adipose tissue was respectively sampled from NMN-treated ANKO mice and NMN-untreated ANKO mice followed by measurement of the levels of PPARγ (Ser273), CDK5 and nuclear protein acetylated lysine in the visceral adipose tissue (per group, n=3 to 4). […]

[2] = system: adiponectin; assay: Serum adiponectin levels in rats orally administered β-NMN (Example 1); assay type: in vivo, rat; conditions: CD rats, males and females, oral 250 and 1000 mg/kg/day, day 28
Method: (§1) A solution prepared by dissolving β-NMN (Oriental Yeast Co., Ltd.) in water for injection (Otsuka Pharmaceutical Co., Ltd.) or PBS (phosphate-buffered saline) was orally administered by gavage using a metal gastric tube (Fuchigami Kikai Co., Ltd.) attached to a polypropylene disposable syringe (Terumo Corp.).
(§2) Measurement of adiponectin levels in the following experiments was carried out in the manner indicated below.
(§3) Anti-mouse adiponectin polyclonal antibody (Oriental Yeast Co., Ltd.) was adjusted to 10 μg/mL with PBS for use as primary antibody solution. […]
(§4) Moreover, 100 μl of substrate solution (Becton Dickinson & Co., TMB Substrate Reagent Set, #555214) were added to each well, and the plate covered with sealing film was incubated for 15 minutes at 25° C. After stopping the reaction by adding 100 μL of 2 N sulfuric acid to each well, the absorbance of each well was measured at a primary wavelength of 450 nm and a secondary wavelength of 570 nm with a plate reader (FLOUstar Optima, BMG LabTech Ltd.). Furthermore, since the mouse adiponectin polyclonal antibody used in ELISA cross-reacts with rat adiponectin, levels of rat adiponectin were measured as mouse adiponectin by using standard mouse adiponectin. […]
Rat serum adiponectin levels were measured on day 28 from the start of administration.

[3] = system: adiponectin; assay: Serum adiponectin levels in mice orally administered β-NMN (Example 2); assay type: in vivo, mouse; conditions: C57BL/6N mice, females, oral 125 and 625 mg/kg/day, day 4
Method: as §1, §2, §3, §4
(§5) Mouse serum adiponectin levels were measured on day 4 from the start of administration. […]

[4] = system: adiponectin; assay: Serum adiponectin levels in mice intraperitoneally administered β-NMN (Example 3); assay type: in vivo, mouse; conditions: C57BL/6J mice, females, intraperitoneal 625 and 1250 mg/kg/day, day 4
Method: A solution prepared by dissolving β-NMN (Oriental Yeast Co., Ltd.) in PBS (phosphate-buffered saline) was administered intraperitoneally in accordance with the method of Dr. Sinclair (Gomes, et al., Cell, 2013, Vol. 155, p. 1624-1638) and the method of Dr. Imai (Yoshino, et al., Cell Metabolism, 2011, Vol. 14, p. 528-536).
as §2, §3, §4, §5

[5] = system: adipocytes differentiated from mouse fibroblast 3T3-L1 cells; assay: Adiponectin secreted from adipocytes differentiated from 3T3-L1 cells stimulated with β-NMN (Example 4); assay type: cell-based; conditions: 3T3-L1 adipocytes cultured with β-NMN for 7 days vs without
Method: 3T3-L1 cells were differentiated into adipocytes and then the cells were stimulated with β-NMN to measure the secreted amount of adiponectin. The 3T3-L1 cells were differentiated into adipocytes in the manner described below. First, 3T3-L1 cells were seeded in a 24-well plate at 5×10^4 cells/well followed by culturing for 2 to 3 days in culture medium (DMEM containing 10% fetal bovine serum (FBS)) at 37° C. in 5% CO2. Next, the culture medium was replaced with a first differentiation-inducing medium (containing 10 μM dexamethasone, 5 μM 3-isobutyl-1-methylxanthine (IBMX) and 10 μg/mL of insulin) followed by culturing for 2 days at 37° C. in 5% CO2. The medium was replaced with the second differentiation-inducing medium (containing 10 μg/mL of insulin) followed by culturing for 2 days at 37° C. in 5% CO2. Subsequently, the medium was twice replaced with culture medium every 2 to 3 days to differentiate the 3T3-L1 cells into mature adipocytes. 3T3-L1 adipocytes were cultured in the presence (“NMN addition”) or absence (“NMN non-addition”) of β-NMN for 7 days. The amount of adiponectin secreted into the culture supernatant was measured. The results of measurement of adiponectin levels in the culture supernatant are shown in. FIG. 4. […]

[6] = ANKO mice, NMN 500 mg/kg body weight/day, 4 to 6 weeks
[7] = NMN-treated vs untreated ANKO mice
[8] = visceral adipose tissue, NMN-treated vs untreated ANKO mice

O=C(O)c1cccnc1 [nicotinic acid, reference compound]
metabolic disorders of ANKO mice ([1]; nicotinic acid 500 mg/kg body weight/day, 5- to 7-week administration): improved

NC(=O)c1ccc[n+]([C@@H]2O[C@H](COP(=O)([O-])O)C(O)[C@H]2O)c1 (stereo partly drawn) [β-NMN, Nicotinamide mononucleotide]
serum adiponectin levels [2]: increased serum adiponectin levels dose-dependently
serum adiponectin levels [3]: increased serum adiponectin levels dose-dependently
serum adiponectin levels [4]: increased serum adiponectin levels dose-dependently
adiponectin levels in the culture supernatant [5]: higher
insulin sensitivity (insulin tolerance test) ([1]; ANKO mice, NMN 500 mg/kg body weight/day for 4 weeks, vs age-matched untreated ANKO mice): improved
plasma FFA concentrations [1, 6]: normalized
plasma insulin concentrations [1, 6]: normalized
plasma concentrations of adiponectin [1, 7]: restored
plasma concentrations of adipsin [1, 7]: restored
adipose tissue NAD+ concentrations ([1]; female ANKO mice, NMN 500 mg/kg body weight/day in drinking water, 4 to 6 weeks): significantly increased
Adipose tissue gene expression of adiponectin and adipsin [1, 8]: restored
global nuclear lysine acetylation [1, 8]: reduced
phosphorylation of CDK5 in VAT [1, 8]: decreased
phosphorylation of PPARγ (Ser273) in VAT [1, 8]: decreased
metabolic disorders of ANKO mice ([1]; β-NMN 500 mg/kg body weight/day in drinking water, 4 to 6 weeks): improved
